Assay results taken from patent publication US20230167149A1, “CD33 LIGANDS SUITABLE FOR INCORPORATION INTO CARRIERS” (GLYCOMIMETICS, INC., priority 2020, published 2023).
pIC50: −log10 of the molar value.

Molecular target: T1, CD33 (Homo sapiens, UniProt P20138)
T1 construct: purchased BioLegend 750106
Assay: CD33 competitive binding assay
Conditions: immobilized CD33-Fc; competition with Neu5Acα2-3Galβ1-3GalNAc-PAA-biotin; TMB readout at 450 nm
Procedure: The assay to screen for and characterize glycomimetic ligands of CD33 is a competitive binding assay, which allows the determination of IC50 values. CD33-Fc (BioLegend catalog item 750106) was immobilized in 96 well microtiter plates by incubation at 4° C. overnight. To reduce non-specific binding, bovine serum albumin was added to each well and incubated at room temperature for 2 hours. The plate was washed and serial dilutions of the test compounds were added to the wells in the presence of biotinylated polyacrylamide conjugated with Neu5Acα2-3Galβ1-3GalNAc-PAA-biotin (GlycoTech catalog item 01-088). After incubation at room temperature for 2 hours and washing, streptavidin/horseradish peroxidase was added to each well and incubated at room temperature for 30 minutes followed by an additional wash.
To determine the amount of glycopolymer bound to the immobilized CD33, the peroxidase substrate 3.3′.5.5′ tetramethylbenzidine (TMB) was added. After 5 minutes, the enzyme reaction was stopped by the addition of H3PO4 and the absorbance of light at a wavelength of 450 nm was determined. The concentration of test compound required to inhibit binding by 50% was determined and reported as the IC50 value.

T1 sequence (P20138 18-364): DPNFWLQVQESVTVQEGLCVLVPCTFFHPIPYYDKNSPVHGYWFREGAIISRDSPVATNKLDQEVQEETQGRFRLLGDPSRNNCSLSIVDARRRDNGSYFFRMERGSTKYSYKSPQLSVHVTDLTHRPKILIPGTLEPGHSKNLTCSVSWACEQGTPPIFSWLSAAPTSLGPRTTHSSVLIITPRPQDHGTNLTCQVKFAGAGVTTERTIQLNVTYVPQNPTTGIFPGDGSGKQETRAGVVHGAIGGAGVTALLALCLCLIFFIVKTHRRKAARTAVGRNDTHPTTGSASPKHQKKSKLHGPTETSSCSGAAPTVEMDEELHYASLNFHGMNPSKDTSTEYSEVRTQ

pIC50: 4.40
SMILES: CCCNC(=O)COC1C[C@](OCCCn2cc(-c3ccccc3)nn2)(C(=O)O)OC([C@H](O)[C@H](O)CNC(=O)c2cc(C)c(O)c(C)c2)[C@@H]1NC(=O)Cn1cc(C2CCCCC2)nn1 (stereo partly shown) [Compound 193]
